Patent US20220153745A1, “DISUBSTITUTED BENZOTHIENYL-PYRROLOTRIAZINES AND THEIR USE AS FGFR KINASE INHIBITORS” (Bayer Intellectual Property GmbH, priority 2011, published 2022)
Structures can show the parent of a compound that is named as a salt.

What was measured:
Format in all cases: biochemical
FGFR-1 = target: T1, FGFR-1 (Homo sapiens, UniProt P11362); assay: FGFR-1 high ATP kinase assay (TR-FRET); details: 2 mM ATP, 15 min pre-incubation; compounds of the invention (Table 1A)
T1 construct: human FGFR-1 from amino acids G400 to R800 as in GenBank entry NM_015850; purchased Proqinase 0101-0000-1; host or cells: SF9 insect cells (baculovirus)
T1 sequence (P11362 402-822): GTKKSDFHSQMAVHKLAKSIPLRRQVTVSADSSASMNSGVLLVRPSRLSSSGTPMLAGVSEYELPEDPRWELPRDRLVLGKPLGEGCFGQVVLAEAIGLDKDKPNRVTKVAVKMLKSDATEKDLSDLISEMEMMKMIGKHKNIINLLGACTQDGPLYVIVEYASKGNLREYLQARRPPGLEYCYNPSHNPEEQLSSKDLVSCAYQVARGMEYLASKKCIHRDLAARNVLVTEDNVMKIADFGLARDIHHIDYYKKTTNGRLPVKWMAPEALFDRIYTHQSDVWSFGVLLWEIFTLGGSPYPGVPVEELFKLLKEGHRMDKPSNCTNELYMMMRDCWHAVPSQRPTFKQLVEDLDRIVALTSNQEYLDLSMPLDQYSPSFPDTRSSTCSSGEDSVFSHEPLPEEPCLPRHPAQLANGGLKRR

FGFR-3 = target: T2, FGFR-3 (Homo sapiens, UniProt P22607); assay: FGFR-3 kinase assay (TR-FRET); details: 10 μM ATP, 15 min pre-incubation; compounds of the invention (Table 2A)
T2 construct: human FGFR-3 from amino acids R397 to T806 as in NCBI/Protein entry NP_000133.1; purchased Proqinase 1068-0000-1; host or cells: SF9 insect cells (baculovirus)
T2 sequence (P22607 397-806): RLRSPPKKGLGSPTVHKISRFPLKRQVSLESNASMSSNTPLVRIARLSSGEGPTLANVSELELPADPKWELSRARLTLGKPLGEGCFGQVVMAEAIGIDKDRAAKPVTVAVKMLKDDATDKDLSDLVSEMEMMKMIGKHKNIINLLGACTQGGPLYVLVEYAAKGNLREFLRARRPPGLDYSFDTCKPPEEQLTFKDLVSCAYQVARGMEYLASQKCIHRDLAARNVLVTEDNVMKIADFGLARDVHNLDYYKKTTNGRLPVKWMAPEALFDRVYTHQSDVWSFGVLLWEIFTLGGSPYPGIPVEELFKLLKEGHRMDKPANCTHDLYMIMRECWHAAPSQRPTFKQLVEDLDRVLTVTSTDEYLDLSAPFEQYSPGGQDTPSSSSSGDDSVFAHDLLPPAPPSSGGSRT

mTOR = target: T3, mTOR (Homo sapiens, UniProt P42345); assay: mTOR kinase assay (TR-FRET, for comparative purposes); details: read-out: mTOR % inhibition @ 1 μM, mean inhibition at 1 μM test compound, 40 μM ATP
T3 construct: human mTOR amino acids from 1360 to 2549; purchased Invitrogen 4753; host or cells: insect cells
T3 sequence (P42345 1360-2549): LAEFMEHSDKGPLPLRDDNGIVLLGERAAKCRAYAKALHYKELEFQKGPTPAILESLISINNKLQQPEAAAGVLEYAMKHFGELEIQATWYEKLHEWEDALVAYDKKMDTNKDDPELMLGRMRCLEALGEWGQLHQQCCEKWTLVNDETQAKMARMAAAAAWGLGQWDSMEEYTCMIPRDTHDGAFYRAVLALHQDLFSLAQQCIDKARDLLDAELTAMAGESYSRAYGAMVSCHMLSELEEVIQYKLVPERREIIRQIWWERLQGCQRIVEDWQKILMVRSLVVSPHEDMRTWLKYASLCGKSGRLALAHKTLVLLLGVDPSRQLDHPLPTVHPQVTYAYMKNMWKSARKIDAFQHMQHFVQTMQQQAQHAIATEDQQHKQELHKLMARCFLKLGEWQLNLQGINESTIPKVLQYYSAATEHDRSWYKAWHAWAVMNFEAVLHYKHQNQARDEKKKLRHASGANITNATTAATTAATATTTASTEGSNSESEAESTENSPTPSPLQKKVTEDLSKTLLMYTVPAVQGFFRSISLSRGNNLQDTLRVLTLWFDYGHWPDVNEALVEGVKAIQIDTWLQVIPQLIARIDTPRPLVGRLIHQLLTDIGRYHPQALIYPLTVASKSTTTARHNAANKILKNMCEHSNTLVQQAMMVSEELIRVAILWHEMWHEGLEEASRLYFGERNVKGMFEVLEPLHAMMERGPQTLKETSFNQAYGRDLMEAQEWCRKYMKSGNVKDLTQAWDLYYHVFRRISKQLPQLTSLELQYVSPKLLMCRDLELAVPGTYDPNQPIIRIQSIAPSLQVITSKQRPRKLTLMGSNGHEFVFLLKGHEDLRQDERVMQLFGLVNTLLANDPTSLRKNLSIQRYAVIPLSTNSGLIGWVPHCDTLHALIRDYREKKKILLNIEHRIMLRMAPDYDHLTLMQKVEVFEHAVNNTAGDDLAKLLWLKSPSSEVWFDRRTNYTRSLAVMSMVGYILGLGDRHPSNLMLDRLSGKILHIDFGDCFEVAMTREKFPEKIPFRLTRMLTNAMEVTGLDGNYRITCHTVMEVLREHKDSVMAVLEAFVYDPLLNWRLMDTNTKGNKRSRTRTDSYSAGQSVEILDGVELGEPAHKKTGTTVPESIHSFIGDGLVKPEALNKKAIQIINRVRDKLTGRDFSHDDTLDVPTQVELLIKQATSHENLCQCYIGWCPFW

| SMILES | IC50 (FGFR-1) [nM] | IC50 (FGFR-3) [nM] | inhibition at 1 µM (mTOR) [%] |
| --- | --- | --- | --- |
| COc1cc(C)cc2cc(-c3c(CNCC4CC4)c(CN4CCNCC4)n4ncnc(N)c34)sc12 [Example 47, 6-{[(Cyclopropylmethyl)amino]methyl}-5-(7-methoxy-5-methyl-1-benzothiophen-2-yl)-7-(piperazin-1-ylmethyl)pyrrolo[2,1-f][1,2,4]triazin-4-amine trihydrochloride] | 1.7 | 3.4 | 14.7 |
| COc1cc(C)cc2cc(-c3c(CN)c(CN4CCNCC4)n4ncnc(N)c34)sc12 [Example 62, 6-(Aminomethyl)-5-(7-methoxy-5-methyl-1-benzothiophen-2-yl)-7-(piperazin-1-ylmethyl)pyrrolo[2,1-f][1,2,4]triazin-4-amine trihydrochloride] | 3.1 | 11 | 0.2 |
| COc1cc(C)cc2cc(-c3c(CNC(C)=O)c(CN4CCNCC4)n4ncnc(N)c34)sc12 [Example 64, N-{[4-Amino-5-(7-methoxy-5-methyl-1-benzothiophen-2-yl)-7-(piperazin-1-ylmethyl)pyrrolo[2,1-f][1,2,4]triazin-6-yl]methyl}acetamide dihydrochloride] | 1 | 2.9 | 1.1 |
